Structures are written as SMILES. ≈ marks a conversion by molar mass, not a printed value. Where a name gives a salt, the structure may show the parent alone. Residues, ends and D or L forms follow the SMILES beside them.

The values that follow come from article PMC9241943, “LcCCL28-25, Derived from Piscine Chemokine, Exhibits Antimicrobial Activity against Gram-Negative and Gram-Positive Bacteria In Vitro and In Vivo” (Microbiology Spectrum, 2022).

The test system of series [1] is P. aeruginosa FRD1. Type of series: cell-based, Pseudomonas aeruginosa. The following applies: FRD1, 2 h. As to the method:
(§1) The MIC assays were performed as previously described ([43]). Briefly, peptides were plated in a 2-fold dilution series (50 μL/well) of Mueller-Hinton broth (MHB) in Costar 96-well cell culture plates (Corning, NY, USA). Three repeats were set for each concentration. E. coli ATCC 25922, A. hydrophila ATCC 7966, P. aeruginosa PAO1, P. aeruginosa FRD1, S. aureus ATCC 25923, S. agalactiae ATCC 13813, S. pneumoniae ATCC 49619, methicillin-resistant S. aureus ATCC 43300, and methicillin-resistant S. aureus USA300 were cultured in Luria-Bertani (LB) medium, while K. pneumoniae CMCC46117 was cultured in tryptic soy broth (TSB) medium. Incubation was done at 37°C and 150 × g for 12 h. Bacteria were transferred to fresh MHB at a ratio of 1% (vol/vol) and incubated to reach a logarithmic growth phase. Then, 50 μL of a bacterial suspension at 4 × 10^6 CFU/mL was added to each well. […]

Series [2] concerns Aeromonas hydrophila ATCC 7966. Format: cell-based. The following applies: ATCC 7966, 2 h. As to the method:
as §1

The test system of series [3] is Escherichia coli ATCC 25922. Format: cell-based. The settings on record: ATCC 25922, 2 h. The procedure:
as §1

The test system of series [4] is Klebsiella pneumoniae CMCC46117. Type of series: cell-based. The settings on record: CMCC46117, 2 h. The procedure:
as §1

Series [5] has as its system Pseudomonas aeruginosa PAO1. Format: cell-based. The following applies: PAO1, 2 h. As to the method:
as §1

For series [6], the system named is Staphylococcus aureus ATCC 25923. Type of series: cell-based. The following applies: ATCC 25923, 2 h. The procedure: as §1
Series [7] deals with Streptococcus agalactiae ATCC 13813. Format: cell-based. The following applies: ATCC 13813, 2 h. As to the method:
as §1

The test system of series [8] is Streptococcus pneumoniae ATCC 49619. Type of series: cell-based. The settings on record: ATCC 49619, 2 h. The procedure:
as §1

The test system of series [9] is Methicillin-resistant S. aureus ATCC 43300. Format: cell-based, Staphylococcus aureus. The settings on record: ATCC 43300, 2 h. As to the method: as §1
Series [10] deals with Methicillin-resistant S. aureus USA300. Format: cell-based, Staphylococcus aureus. The following applies: USA300, 2 h. The procedure: as §1
Series [11] concerns E. coli ATCC 25922. Kind of series: SYTOX green membrane permeability assay. The settings on record: E. coli ATCC 25922, 5 μM SYTOX green, read every 1 min. Type of series: cell-based, Escherichia coli. As to the method:
The SYTOX green staining assay was performed to assess peptide-associated membrane damage ([47], [52]). E. coli ATCC 25922 and S. aureus ATCC 25923 cells in the mid-logarithmic phase were collected, washed thrice, and resuspended (5 × 10^7 CFU/mL) in buffer B (10 mM Tris-HCl, pH 7.4, at 25°C). The bacterial suspensions were mixed with 5 μM SYTOX green and incubated for 15 min at room temperature in the dark. Then, the mixtures were added to black, clear-bottom 96-well plates at a density of 100 μL/well. After peptide addition, SYTOX green uptake was monitored using an EnSpire multimode plate reader (PerkinElmer, Singapore) with an excitation wavelength of 485 nm and an emission wavelength of 520 nm. Each measurement interval was 1 min, totaling 30 to 60 times. Melittin was used as the positive control, while bovine serum albumin (BSA) was the negative control.

For series [12] the following is noted: data not shown.
The test system of series [13] is P. aeruginosa FRD1 biofilm. Kind of series: Biofilm inhibition assay (crystal violet). Format: cell-based, Pseudomonas aeruginosa. The following applies: P. aeruginosa FRD1, 6.25 μg/mL (0.5× MIC), 37°C 24 h, triplicate. The procedure:
In vitro static biofilm models have been reported in many studies ([45][–][47]). A Pseudomonas aeruginosa mucoid strain, FRD1, isolated from a cystic fibrosis patient, was used for the biofilm inhibition and eradication assay. The FRD1 strain was shock cultured to logarithmic growth stage at 37°C and 150 × g. After cleaning using PBS and centrifuging thrice, the bacteria were resuspended in MHB medium (with 0.2% glucose) and gradient diluted to an OD600 value of ~0.01.
For the biofilm inhibition assay, 90-μL amounts of bacterial suspensions and 10-μL amounts of increasing concentrations of the peptide were added to a 96-well plate and coincubated at 37°C for 24 h. Then, bacterial biofilms were quantified as follows: (i) planktonic bacteria were removed by washing thrice using PBS, (ii) biofilm bacteria were fixed in 100 μL of 4% paraformaldehyde at room temperature for 15 min and (iii) stained with 100 μL of 0.1% crystal violet for 30 min, (iv) the dye was removed, followed by washing twice using PBS, adding 200 μL of 95% ethanol to each well to dissolve the crystal violet, and finally, (v) absorbance was measured at 590 nm using an EnSpire multimode plate reader (PerkinElmer, Singapore).

The test system of series [14] is methicillin-resistant S. aureus standard strain USA300. The series can be described thus: Neutropenic mouse thigh infection model. Type of series: in vivo. The following applies: neutropenic BALB/c mice, 300 μg i.p. at 2 h postinfection. As to the method: Female BALB/c mice were used to construct a neutropenic murine thigh infection model as previously published ([48][–][50]). Briefly, mice (n = 9/group) were rendered neutropenic by consecutive intraperitoneal injections of 150 and 100 mg/kg of body weight cyclophosphamide at 4 and 1 day before bacterial injection ([51]). An S. aureus USA300 inoculum (~1.5 × 10^6 CFU/mL) was prepared by diluting logarithmic phase bacteria with fresh MHB. Each mouse was infected by intramuscular injection of 0.1 mL of the inoculum (~1.5 × 10^5 CFU) into the right thigh muscles. At 2 h postinfection, 0.1 mL of lcCCL28-25 peptide (300 μg) or vancomycin hydrochloride (300 μg, 15 mg/kg) was administered by intraperitoneal injection. The control group was injected with an equal volume of PBS. Untreated control mice were sacrificed at the start of treatment to establish the baseline bacterial burden. Mice in the three treatment groups (PBS, vancomycin, and lcCCL28-25) were sacrificed at 48 h postinfection. Their right thighs were aseptically harvested, placed in sterile saline and homogenized using a Bioprep-6 homogenizer (Allsheng, Hangzhou, China). After being serially diluted to 1:10 in sterile saline, 100-μL amounts of tissue suspensions at various concentrations were plated on LB agar to determine bacterial counts after incubation at 37°C for 24 h.

The term MIC denotes the lowest concentration found to suppress growth. Higher therefore signals a need for much substance. For the compound `CSCC[C@H](NC(=O)[C@H](CCCNC(=N)N)NC(=O)[C@H](CCCCN)NC(=O)[C@H](CC(C)C)NC(=O)[C@H](CCCCN)NC(=O)[C@H](CCCNC(=N)N)NC(=O)[C@H](CCCCN)NC(=O)[C@@H](NC(=O)[C@H](CCCCN)NC(=O)[C@@H]1CCCN1C(=O)[C@H](Cc1c[nH]cn1)NC(=O)[C@H](C)N)C(C)C)C(=O)N[C@@H](CCC(N)=O)C(=O)N[C@@H](CCCNC(=N)N)C(=O)N[C@@H](CCCCN)C(=O)N[C@@H](CCCCN)C(=O)N[C@@H](CC(=O)O)C(=O)NCC(=O)N[C@@H](CCCCN)C(=O)N[C@@H](CCC(N)=O)C(=O)N[C@@H](CCCCN)C(=O)N[C@@H](CCCNC(=N)N)C(=O)N[C@@H](Cc1c[nH]cn1)C(=O)O` [omCCL28-like-23] (H-AHPKVKRKLKRMQRKKDGKQKRH-OH; N-terminus and C-terminus assumed), the MIC in [1] is 25.00 µg/mL (≈ 8.67 µM); in [2], more than 50.00 µg/mL; in series [3], 12.50 µg/mL (≈ 4.34 µM); in series [4] it was more than 50.00 µg/mL; in series [5] it was 25.00 µg/mL (≈ 8.67 µM); in series [6], 12.50 µg/mL (≈ 4.34 µM). Besides, the MIC in series [7] is 12.50 µg/mL (≈ 4.34 µM); in series [8], 25.00 µg/mL (≈ 8.67 µM); in [9], 25.00 µg/mL (≈ 8.67 µM); in series [10], 12.50 µg/mL (≈ 4.34 µM). Further, the “SYTOX green fluorescence intensity” value in series [11] is given as “increased rapidly within 20 min”. The “solubility in 50% TFE solution” value in series [12] was “insoluble”.

On to `CC[C@H](C)[C@H](NC(=O)[C@H](CCC(N)=O)NC(=O)[C@H](CCSC)NC(=O)[C@H](C)NC(=O)[C@@H](NC(=O)CNC(=O)[C@H](CC(C)C)NC(=O)[C@@H](NC(=O)[C@H](CCCCN)NC(=O)[C@H](CCCCN)NC(=O)[C@@H](NC(=O)[C@H](CCCNC(=N)N)NC(=O)[C@@H]1CCCN1C(=O)[C@H](CC(=O)O)NC(=O)[C@H](C)N)C(C)C)C(C)C)C(C)C)C(=O)N[C@@H](CCCNC(=N)N)C(=O)N[C@@H](CCCCN)C(=O)N[C@@H](C)C(=O)N[C@@H](CCC(N)=O)C(=O)N[C@@H](CC(C)C)C(=O)N[C@@H](CCSC)C(=O)N[C@@H](CCCNC(=N)N)C(=O)N[C@@H](CCC(=O)O)C(=O)N[C@@H](CCCCN)C(=O)N[C@@H](CC(C)C)C(=O)N[C@@H](CC(N)=O)C(=O)N[C@@H](CO)C(=O)N[C@H](C(=O)N[C@@H](CCSC)C(=O)N[C@@H](CCCNC(=N)N)C(=O)N[C@@H](CCCNC(=N)N)C(=O)O)[C@@H](C)CC` [omCK11-31] (H-ADPRVKKVLGVAMQIRKAQLMREKLNSIMRR-OH; N-terminus and C-terminus assumed), for which the MIC was 12.50 µg/mL (≈ 3.44 µM) in series [1]; more than 50.00 µg/mL in [2]; 12.50 µg/mL (≈ 3.44 µM) in series [3]; 25.00 µg/mL (≈ 6.87 µM) in series [4]; 25.00 µg/mL (≈ 6.87 µM) in series [5]; 12.50 µg/mL (≈ 3.44 µM) in series [6]. Moreover, the MIC in [7], in series [8], in [9] and in series [10] was 12.50 µg/mL (≈ 3.44 µM) in each case. The “reduction of biofilm formation” value in series [13] is given as ~ 45%. Besides, in series [11], the “SYTOX green fluorescence intensity” value is listed as “fluorescence trends similar to the trends in E. coli cells treated with lcCCL28-25”.

For `CC[C@H](C)[C@H](NC(=O)[C@H](CC(=O)O)NC(=O)[C@H](CCCCN)NC(=O)[C@H](Cc1ccccc1)NC(=O)[C@@H](NC(=O)[C@@H](NC(=O)[C@H](CCC(N)=O)NC(=O)[C@H](CC(=O)O)NC(=O)[C@@H](N)C(C)C)[C@@H](C)O)C(C)C)C(=O)N[C@@H](Cc1c[nH]c2ccccc12)C(=O)N[C@@H](Cc1c[nH]c2ccccc12)C(=O)N[C@@H](CCCNC(=N)N)C(=O)N[C@@H](CCSC)C(=O)N[C@@H](CCCCN)C(=O)N[C@@H](CCC(N)=O)C(=O)N[C@@H](Cc1c[nH]c2ccccc12)C(=O)N[C@@H](CCCCN)C(=O)N[C@@H](CCC(N)=O)C(=O)N[C@@H](CCCNC(=N)N)C(=O)N[C@H](C(=O)N[C@@H](CCCCN)C(=O)N[C@@H](CCCCN)C(=O)N[C@@H](CCCNC(=N)N)C(=O)N[C@@H](C)C(=O)N[C@@H](C)C(=O)N[C@@H](CCCCN)C(=O)N[C@@H](Cc1ccc(O)cc1)C(=O)N[C@@H](CC(N)=O)C(=O)N[C@H](C(=O)O)C(C)C)C(C)C` [trCCL28-29] (H-VDQTVFKDIWWRMKQWKQRVKKRAAKYNV-OH; N-terminus and C-terminus assumed), the MIC in series [1] was 25.00 µg/mL (≈ 6.69 µM); in [2], 25.00 µg/mL (≈ 6.69 µM); in [3], 12.50 µg/mL (≈ 3.34 µM); in series [4] it was 25.00 µg/mL (≈ 6.69 µM); in series [5] it was 25.00 µg/mL (≈ 6.69 µM); in series [6], 12.50 µg/mL (≈ 3.34 µM). For the same compound, the MIC in [7] stood at 12.50 µg/mL (≈ 3.34 µM); in series [8], 25.00 µg/mL (≈ 6.69 µM); in series [9], 12.50 µg/mL (≈ 3.34 µM); in series [10], 12.5 µg/mL (≈ 3.34 µM). The “SYTOX green fluorescence intensity” value in [11] was “increased rapidly within 20 min”.

Take `CN[C@H](CC(C)C)C(=O)N[C@H]1C(=O)N[C@@H](CC(N)=O)C(=O)N[C@H]2C(=O)N[C@H]3C(=O)N[C@H](C(=O)N[C@H](C(=O)O)c4cc(O)cc(O)c4-c4cc3ccc4O)[C@H](O)c3ccc(c(Cl)c3)Oc3cc2cc(c3O[C@@H]2O[C@H](CO)[C@@H](O)[C@H](O)[C@H]2O[C@H]2C[C@](C)(N)[C@H](O)[C@H](C)O2)Oc2ccc(cc2Cl)[C@H]1O` [vancomycin, vancomycin hydrochloride, reference compound]: in series [14] (S. aureus USA300 i.m., 48 h postinfection), the “reduction in average bacterial load in thighs versus control group” value turned out to be 1.30 log10 CFU/g. Moreover, the “mice that died after 48 h of infection” value in series [14] (n = 9/group, three died in PBS group) was “none”.
